Assay results reported in US10039812B2, “Therapeutic for treating clostridium difficile infection” (priority 2012, dated 2018).
Read-outs that look alike come from different tables or passages of the source. Where no end group is shown, it is not given here.

Key:
B. subtilis biofilms = details: cited from earlier work
[1] = test system: C. difficile strain 630Δerm; format: cell-based, Clostridium difficile; details: for Effect on biofilm (disassembly): 3 μM D-tyrosine, 2 mM D-methionine, 5 mM D-tryptophan, 8.5 mM D-leucine, mixture 2.5 nM each (FIG. 12)
[2] = test system: C. difficile strain R20291; format: cell-based, Clostridium difficile
S. aureus = details: cited from earlier work; for Biofilm disassembly: 10 μM, 100 μM and 500 μM
[3] = test system: 630Δerm C. difficile biofilms; assay: DNase treatment of biofilms visualised by confocal microscopy; format: cell-based, Clostridium difficile; details: for Degradation of the biofilm (confocal microscopy): 15 minutes
Experimental: The untreated controls were incubated for 15 minutes with 0.15 M NaCl and washed with 1×PBS. These coverslips were mounted onto glass slides, a coverslip was applied over a 50% glycerol mounting media and these were sealed with clear nail varnish. The slides were visualised under oil immersion using a ×40 objective using a laser confocal microscope (Zeiss microscope).

[4] = test system: C. difficile 630Δerm biofilm; assay: DNase, RNase and proteinase K digests of biofilm (floc) in liquid culture; details: 15 minute treatment, room temperature
[5] = test system: C. difficile R20291 biofilm; assay: DNase, RNase and proteinase K digests of biofilm in liquid culture; details: 15 minutes
[6] = test system: C. difficile strain 630Δerm; assay: Inhibition of biofilm formation in TC flasks
[7] = 3 μM D-tyrosine, 2 mM D-methionine, 5 mM D-tryptophan, 8.5 mM D-leucine, mixture 2.5 nM each
[8] = 10 μg/ml added prior to inoculation, 6 day incubation, static and shaking

CC(C)C[C@@H](N)C(=O)O [D-leucine]
Biofilm disassembly (B. subtilis biofilms; [7]): disassembled
Effect on biofilm formation [1]: ineffective
Growth of the bacteria [1]: inhibited
Effect on biofilm (disassembly) [1]: no significant effect
Effect on biofilm (disassembly) [2]: no significant effect
Effect on biofilm formation [2]: ineffective
Growth of the bacteria [2]: reduced

CSCC[C@@H](N)C(=O)O [D-methionine]
Biofilm disassembly (B. subtilis biofilms; [7]): disassembled
Effect on biofilm (disassembly) [1]: no significant effect
Effect on biofilm (disassembly) [2]: no significant effect

N[C@H](Cc1ccccc1)C(=O)O [D-phenylalanine]
Biofilm disassembly (S. aureus): disassembled

O=C(O)[C@H]1CCCN1 [D-proline]
Biofilm disassembly (S. aureus): disassembled

N[C@H](Cc1c[nH]c2ccccc12)C(=O)O [D-tryptophan]
Biofilm disassembly (B. subtilis biofilms; [7]): disassembled
Biofilm formation [1]: increased the biofilm formation
Disruption of biofilms [1]: not disrupted
Effect on biofilm (disassembly) [1]: no significant effect
Biofilm formation [2]: increased the biofilm formation
Disruption of biofilms [2]: not disrupted
Effect on biofilm (disassembly) [2]: no significant effect

N[C@H](Cc1ccc(O)cc1)C(=O)O [D-tyrosine]
Biofilm disassembly (B. subtilis biofilms; [7]): disassembled
Biofilm disassembly (S. aureus): disassembled
Effect on biofilm (disassembly) [1]: no significant effect
Effect on biofilm (disassembly) [2]: no significant effect

NCCCNCCCN [norspermidine]
Biofilm disassembly (B. subtilis biofilms; norspermidine at 100, 50 and 25 μM): disassemble biofilms
Biofilm level [1]: significantly reduced
Disassembly of biofilm performed in tissue culture flasks [1]: not disrupted
Disassembly of biofilms [1]: does not disassemble biofilms
Viability [1]: slight decrease in viability
Biofilm formation on addition to biofilm cultures [2]: enhances the biofilm formation
Disassembly of biofilms [2]: does not disassemble biofilms

DNase
Degradation of the biofilm (confocal microscopy) ([3]; 1 ug DNase): incomplete degradation
Degradation of the biofilm (confocal microscopy) ([3]; 10 ug DNase): incomplete degradation
Degradation of the biofilms (confocal microscopy) ([3]; DNase for 15 minutes, BHIS and YP media, compared to untreated controls): biofilms were absent
Degradation of the biofilm (floc produced in static culture) ([4]; 100 ug/ml): Degradation of the biofilm was observed
Degradation of the biofilm (floc produced in static culture) ([4]; 1 mg/ml): Degradation of the biofilm was observed
Degradation of the biofilm ([5]; 1 mg/ml): degradation of the biofilm observed
Degradation of the biofilm [5]: degradation of the biofilm observed
Bacterial growth (turbidity of media) [6, 8]: turbid, indicating bacterial growth
Biofilm formation (flocs or aggregates) [6, 8]: no flocs or aggregates were observed
Formation of biofilm in liquid media ([6]; 10 mg/ml in the growth media, incubated statically for six days (FIG. 9)): inhibits the formation of biofilm

Human beta-defensin 3: cationic peptide shown to inhibit biofilm formation in S. aureus (GIINTLQKYYCRVRGGRCAVLSCLPKEEQIGKCSTRGRKCCRRKK; ends and bridges not checked; cysteine pairing not given here; UniProt P81534 23-67, looked up)
Inhibition of biofilm formation (S. aureus): inhibit biofilm formation
